Laboratory results as given in ChEMBL document CHEMBL1151052, “Semi-synthetic qualestatins: Squalene synthase inhibition and antifungal activity. The SAR of C6 and C7 modifications” (Bioorg Med Chem Lett, 1993).
Converted amounts (≈) assume the structure as drawn.

Key:
[1] = system: Aspergillus niger; assay: Tested for the whole cell antifungal activity against Aspergillus niger 48238 strain; format: functional
[2] = system: Cryptococcus neoformans; assay: Antifungal activity against Cryptococcus neoformans 2867E strain; format: functional
[3] = system: Candida albicans; assay: Antifungal activity against Candida albicans C316 strain; format: functional
[4] = target: T1, Squalene synthase (Rattus norvegicus, UniProt Q02769); assay: Inhibition of rat liver squalene synthase(SQS)
T1 sequence (Q02769 whole entry): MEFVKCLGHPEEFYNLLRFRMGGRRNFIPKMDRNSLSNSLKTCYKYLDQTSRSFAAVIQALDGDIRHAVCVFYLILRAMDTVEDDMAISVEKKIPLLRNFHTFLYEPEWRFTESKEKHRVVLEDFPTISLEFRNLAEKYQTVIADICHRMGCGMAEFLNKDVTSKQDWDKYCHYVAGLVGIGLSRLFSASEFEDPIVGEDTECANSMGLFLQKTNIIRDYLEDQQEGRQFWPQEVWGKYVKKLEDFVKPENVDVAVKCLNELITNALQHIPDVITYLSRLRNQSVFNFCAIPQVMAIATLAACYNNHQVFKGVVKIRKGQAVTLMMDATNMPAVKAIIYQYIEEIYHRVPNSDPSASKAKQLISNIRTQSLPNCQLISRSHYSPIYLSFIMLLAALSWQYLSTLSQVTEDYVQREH

MIC [1]	MIC [2]	MIC [3]	IC50 [4]	SMILES
> 125 µg/mL	> 125 µg/mL	> 125 µg/mL		C=C(CC[C@]12O[C@H](C(=O)O)[C@@](O)(C(=O)O)[C@](C(=O)O)(O1)[C@H](O)[C@H]2O)[C@@H](OC(C)=O)[C@H](C)Cc1ccccc1
0.25 µg/mL (≈ 0.353 µM)	0.06 µg/mL (≈ 0.0847 µM)	1 µg/mL (≈ 1.41 µM)	7 nM	C=C(CC[C@]12O[C@H](C(=O)O)[C@@](O)(C(=O)O)[C@](C(=O)O)(O1)[C@H](OC(=O)OCCCCCCCCC)[C@H]2O)[C@@H](OC(C)=O)[C@H](C)Cc1ccccc1
> 125 µg/mL	> 125 µg/mL	> 125 µg/mL	380 nM	C=C(CC[C@]12O[C@H](C(=O)O)[C@@](O)(C(=O)O)[C@](C(=O)O)(O1)[C@H](O)[C@H]2OC(=O)OC)[C@@H](OC(C)=O)[C@H](C)Cc1ccccc1
62 µg/mL (≈ 93.6 µM)	2 µg/mL (≈ 3.02 µM)	62 µg/mL (≈ 93.6 µM)		C=C(CC[C@]12O[C@H](C(=O)O)[C@@](O)(C(=O)O)[C@](C(=O)O)(O1)[C@H](OC(=O)CC1CCCCC1)[C@H]2O)[C@@H](OC(C)=O)[C@H](C)Cc1ccccc1
> 62 µg/mL	31 µg/mL (≈ 47.8 µM)	> 62 µg/mL	17 nM	C=C(CC[C@]12O[C@H](C(=O)O)[C@@](O)(C(=O)O)[C@](C(=O)O)(O1)[C@H](OC(=O)C1CCCCC1)[C@H]2O)[C@@H](OC(C)=O)[C@H](C)Cc1ccccc1
2 µg/mL (≈ 2.89 µM)	2 µg/mL (≈ 2.89 µM)	16 µg/mL (≈ 23.1 µM)	8 nM	C=C(CC[C@]12O[C@H](C(=O)O)[C@@](O)(C(=O)O)[C@](C(=O)O)(O1)[C@H](OC(=O)CCCCCCCCC)[C@H]2O)[C@@H](OC(C)=O)[C@H](C)Cc1ccccc1
> 125 µg/mL	> 125 µg/mL	125 µg/mL (≈ 167 µM)	15 nM	C=C(CC[C@]12O[C@H](C(=O)O)[C@@](O)(C(=O)O)[C@](C(=O)O)(O1)[C@H](OC(=O)/C=C/[C@@H](C)C[C@@H](C)CC)[C@H]2OC(=O)OC)[C@@H](OC(C)=O)[C@H](C)Cc1ccccc1
62 µg/mL (≈ 85.3 µM)	2 µg/mL (≈ 2.75 µM)	125 µg/mL (≈ 172 µM)	9 nM	C=C(CC[C@]12O[C@H](C(=O)O)[C@@](O)(C(=O)O)[C@](C(=O)O)(O1)[C@H](OC(=O)CCCCCCc1ccccc1)[C@H]2O)[C@@H](OC(C)=O)[C@H](C)Cc1ccccc1
16 µg/mL (≈ 23.2 µM)	0.5 µg/mL (≈ 0.724 µM)	8 µg/mL (≈ 11.6 µM)		C=C(CC[C@]12O[C@H](C(=O)O)[C@@](O)(C(=O)O)[C@](C(=O)O)(O1)[C@H](OC(=O)/C=C/[C@@H](C)C[C@@H](C)CC)[C@H]2O)[C@@H](OC(C)=O)[C@H](C)Cc1ccccc1 [ZARAGOZIC ACIDS A]
> 125 µg/mL	> 125 µg/mL	> 125 µg/mL	> 500 nM	C=C(CC[C@]12O[C@H](C(=O)O)[C@@](O)(C(=O)O)[C@](C(=O)O)(O1)[C@H](O)[C@H]2OC(=O)CCCCCCC)[C@@H](OC(C)=O)[C@H](C)Cc1ccccc1
> 125 µg/mL	> 125 µg/mL	> 125 µg/mL	8 nM	C=C(CC[C@]12O[C@H](C(=O)O)[C@@](O)(C(=O)O)[C@](C(=O)O)(O1)[C@H](OC(=O)c1ccccc1)[C@H]2O)[C@@H](OC(C)=O)[C@H](C)Cc1ccccc1
> 125 µg/mL		> 125 µg/mL		C=C(CC[C@]12O[C@H](C(=O)O)[C@@](O)(C(=O)O)[C@](C(=O)O)(O1)[C@H](OC(C)=O)[C@H]2OC(C)=O)[C@@H](OC(C)=O)[C@H](C)Cc1ccccc1
> 125 µg/mL	> 125 µg/mL	> 125 µg/mL	280 nM	C=C(CC[C@]12O[C@H](C(=O)O)[C@@](O)(C(=O)O)[C@](C(=O)O)(O1)[C@H](OC(=O)CCCCCCC)[C@H]2OC(=O)CCCCCCC)[C@@H](OC(C)=O)[C@H](C)Cc1ccccc1
> 125 µg/mL		> 125 µg/mL		C=C(CC[C@]12O[C@H](C(=O)O)[C@@](O)(C(=O)O)[C@](C(=O)O)(O1)[C@H](O)[C@H]2OC(C)=O)[C@@H](OC(C)=O)[C@H](C)Cc1ccccc1
> 32 µg/mL	> 32 µg/mL	> 32 µg/mL		C=C(CC[C@]12O[C@H](C(=O)O)[C@@](O)(C(=O)O)[C@](C(=O)O)(O1)[C@H](OC(=O)/C=C/[C@@H](C)C[C@@H](C)CC)[C@H]2OC(=O)CCCCCCC)[C@@H](OC(C)=O)[C@H](C)Cc1ccccc1
> 125 µg/mL	> 125 µg/mL	> 125 µg/mL	2 nM	C=C(CC[C@]12O[C@H](C(=O)O)[C@@](O)(C(=O)O)[C@](C(=O)O)(O1)[C@H](OC(C)=O)[C@H]2O)[C@@H](OC(C)=O)[C@H](C)Cc1ccccc1
> 125 µg/mL	> 125 µg/mL	> 125 µg/mL	3 nM	C=C(CC[C@]12O[C@H](C(=O)O)[C@@](O)(C(=O)O)[C@](C(=O)O)(O1)[C@H](OC(=O)OC)[C@H]2O)[C@@H](OC(C)=O)[C@H](C)Cc1ccccc1
> 125 µg/mL	> 125 µg/mL	> 125 µg/mL		C=C(CC[C@]12O[C@H](C(=O)O)[C@@](O)(C(=O)O)[C@](C(=O)O)(O1)[C@H](OC(=O)CCCC)[C@H]2O)[C@@H](OC(C)=O)[C@H](C)Cc1ccccc1
> 125 µg/mL	> 125 µg/mL	> 125 µg/mL		C=C(CC[C@]12O[C@H](C(=O)O)[C@@](O)(C(=O)O)[C@](C(=O)O)(O1)[C@H](OC(=O)CCC)[C@H]2OC(=O)CCC)[C@@H](OC(C)=O)[C@H](C)Cc1ccccc1
8 µg/mL (≈ 12 µM)	1 µg/mL (≈ 1.5 µM)	31 µg/mL (≈ 46.6 µM)	3 nM	C=C(CC[C@]12O[C@H](C(=O)O)[C@@](O)(C(=O)O)[C@](C(=O)O)(O1)[C@H](OC(=O)CCCCCCC)[C@H]2O)[C@@H](OC(C)=O)[C@H](C)Cc1ccccc1
> 125 µg/mL	> 125 µg/mL	> 125 µg/mL	303 nM	C=C(CC[C@]12O[C@H](C(=O)O)[C@@](O)(C(=O)O)[C@](C(=O)O)(O1)[C@H](O)[C@H]2OC(=O)CCCCCCCCC)[C@@H](OC(C)=O)[C@H](C)Cc1ccccc1
> 125 µg/mL	31 µg/mL (≈ 46.4 µM)	> 125 µg/mL	4 nM	C=C(CC[C@]12O[C@H](C(=O)O)[C@@](O)(C(=O)O)[C@](C(=O)O)(O1)[C@H](OC(=O)/C=C/c1ccccc1)[C@H]2O)[C@@H](OC(C)=O)[C@H](C)Cc1ccccc1
> 125 µg/mL	> 125 µg/mL	> 125 µg/mL	4 nM	C=C(CC[C@]12O[C@H](C(=O)O)[C@@](O)(C(=O)O)[C@](C(=O)O)(O1)[C@H](OC(=O)OCCCC)[C@H]2O)[C@@H](OC(C)=O)[C@H](C)Cc1ccccc1
8 µg/mL (≈ 10.9 µM)	1 µg/mL (≈ 1.36 µM)	> 125 µg/mL	10 nM	C=C(CC[C@]12O[C@H](C(=O)O)[C@@](O)(C(=O)O)[C@](C(=O)O)(O1)[C@H](OC(=O)/C=C/[C@@H](C)C[C@@H](C)CC)[C@H]2OC(C)=O)[C@@H](OC(C)=O)[C@H](C)Cc1ccccc1
